The record followed here is patent publication US20060088598A1, “Intravenous composition, process for producing the same and preparation thereof” (LTT Bio-Pharama Co., Ltd., priority 2002, published 2006).

Type in all cases: physicochemical
Data set [1] in a line: Releasing behavior of agent from agent-encapsulated PLGA microparticles in suspension. The note with it: 3% BSA-containing PBS at 37° C.; FIG. 3. How it is done: (§1) 30 mg of PLGA (Wako) or PLA (Wako), 3 mg of egg yolk lecithin (Wako), and 1 mg of AS006 or BDP were dissolved in 1 ml of dichloromethane, and microparticles were then produced by the same method as described in Example 1. The obtained microparticles were suspended in distilled water, PBS, or 3% BSA-containing PBS. The suspension was allowed for a certain period of time, and was then centrifuged at 13,000 g for 10 minutes. Thereafter, AS006 or BDP contained in the deposit was assayed by HPLC.

The nature of data set [2]: Releasing behavior after freeze-drying in 10% sucrose. The note with it: freeze-dried in 10% sucrose, resuspended in 3% BSA-containing PBS; FIGS. 6 and 7. As to the method:
as §1
A 10% stabilizer was added to the PLGA microparticle suspension produced in Example 2, and the suspension was then frozen with acetone/dry ice, followed by performing a freeze-drying treatment. The dried PLGA microparticles were dispersed in water again. Thereafter, the turbidity of the suspension was measured with a spectrophotometer, and the microparticle size thereof was measured with a dynamic light scattering photometer. In addition, the AS006-containing PLGA microparticles produced in Example 4 and the BDP-containing PLGA microparticles produced in Example 2 were freeze-dried in 10% sucrose, and the remaining amount of the agent and the releasing behavior were measured by the method described in Example 2.

The nature of data set [3]: Remaining ratio of agent in PLGA microparticles after 1% SDS or 80% FBS, 37° C., 5 minutes. Particulars: with addition of SDS, FIG. 4. As to the method: Each of the agents produced in Example 1 was suspended in 80% FBS (fetal bovine serum) or in a 1% SDS aqueous solution, and the suspension was incubated at 37° C. for 5 minutes. Thereafter, the resultant product was centrifuged at 13,000 g for 10 minutes, and the amount of the agent contained in the deposit was assayed by HPLC.

A short description of data set [4]: Encapsulation ratio of agents in PLGA microparticles (HPLC of supernatant and deposit). Particulars: FIG. 1; microparticles of Example 1. How it is done: 100 mg of PLGA (Wako) or PLA (Wako), 10 mg of egg yolk lecithin, and 0.5 mg of an agent were dissolved in 1 ml of dichloromethane. While cooling in an ice bath, the obtained solution was slowly added dropwise, through a 27G needle, to 25 ml of distilled water, which was being stirred with Polytron PT-2100 (Kinematica) or an ultrasonic generator (TOMY). After the stirring was continued for 10 minutes, the mixture was further stirred with a stirrer at room temperature for 2 hours. Thereafter, dichloromethane was removed. The obtained microparticles were concentrated by ultra filtration (Amicon, Centriprep YM-10) and were then purified by gel filtration (Pharmacia, PD-10). The thus obtained particles were centrifuged at 13,000 g for 10 minutes, and the agent contained in the supernatant and deposit was assayed by HPLC. HPLC analysis was carried out in a water/acetonitrile system for measuring the absorption at 210 nm or 240 nm using a C4 reverse phase column (Waters, Symmetry 300). With regard to agents, PGE1, and ASO06 produced by esterifying carboxylic acid and a hydroxyl group thereof, were used as prostanoids.

Some results are limits rather than exact numbers.

Turning to `CCC(=O)OCC(=O)[C@@]1(OC(=O)CC)[C@@H](C)C[C@H]2[C@@H]3CCC4=CC(=O)C=C[C@]4(C)[C@@]3(F)[C@@H](O)C[C@@]21C` [BDP, betamethazone dipropionate], in data set [1], the sustained-release behavior result is “same sustained-release behavior as that of ASO06”. Moreover, the “releasing behavior with vs without freeze-drying” value in data set [2] is recorded as “same releasing behavior regardless whether or not a freeze-drying treatment had been carried out”. The “agent remaining in PLGA” value in data set [3] is listed as no less than 80%. Also, the “encapsulation ratio in PLGA microparticle” value (“encapsulation ratio” below) in data set [4] is on record as “significantly increased”. Regarding `CCCC(=O)O[C@]1(C(=O)COC(=O)CC)CC[C@H]2[C@@H]3CCC4=CC(=O)CC[C@]4(C)[C@H]3[C@@H](O)C[C@@]21C` [HBP, hydrocortisone butyrate propionate], in data set [4], the “encapsulation ratio” value is given as “significantly increased”. As to `CCCCC[C@H](O)/C=C/[C@H]1[C@H](O)CC(=O)[C@@H]1CCCCCCC(=O)O` [PGE1, prostaglandin E1], in data set [4], the “encapsulation ratio” value is listed as “almost no PGE1 could be encapsulated”. Same read-out and setting: then `C[C@]12CCC(=O)C=C1CC[C@@H]1[C@@H]2[C@@H](O)C[C@@]2(C)[C@H]1CC[C@]2(O)C(=O)CO` [hydrocortisone, Hydrocortisone], with “almost neither hydrocortisone nor betamethazone could be encapsulated”.
